From patent publication US10385005B2, “Compositions and methods for glucose transport inhibition” (OHIO UNIVERSITY, priority 2010, dated 2019)
Values joined by “and” are separate entries in the source; they are usually repeats but may differ in a detail not shown here. Equal values may be shown once. Marks after values point to notes of the source that are not given here.

Legend:
NL20 normal lung cells = test: MTT cell death assay, NL20; type: cell-based, human; conditions: concentration = IC50 for each compound
From the text: (§1) Comparative assays using WZB-27, WZB-115, as well as two known anticancer drugs, cisplatin and taxol, were completed. In Table 4, the percent cell death in cancer cell lines as well as normal cell lines is shown. […] Comparing the breast cancer cell line MCF7, WZB-27 and WZB-115 kill somewhat fewer cells relative to taxol but more than cisplatin. Both WZB-27 and WZB-115 kill fewer of the normal breast cell line MCF12A than taxol or cisplatin. WZB-27 kills fewer of the normal breast cell line MCF12A than taxol or cisplatin while WZB-115 kills no more normal cells than either cisplatin or taxol.
(§2) MTT assays are performed by the following well-established method. In a 96 well tissue culture plate 10,000 cells are plated in each well. The cells are incubated in presence or absence of the compounds for 18 h. 3-(4,5-Dimethylthiazol-2-yl)-2,5-diphenyltetrazolium bromide (MTT) is dissolved in PBS (10 mg/ml) and filter sterilized. Three hours before the end of the incubation 20 μL of MTT solution is added to each well containing cells in a 96-well plate. The plate is incubated in an incubator at 37° C. for 3 h. Media is aspirated gently and 200 μL of DMSO is added to each well to dissolve formazan crystals. The absorbance is measured at 550 nm for cell viability.

[1] = test system: MCF12A normal breast cells; test: MTT cell death assay, MCF12A; type: cell-based, human; conditions: concentration = IC50 for each compound
From the text: as §1, §2

MCF7 breast cancer cells = test: MTT cell death assay, MCF7; type: cell-based, human; conditions: concentration = IC50 for each compound
From the text: as §1, §2

H1299 lung cancer cells = test: MTT cell growth / viability assay, H1299; type: cell-based, human; conditions: for % cell death: concentration = IC50 for each compound
Description: (§3) Briefly, H1299 cancer cells were treated with or without the compounds (30 μM) in triplicates for 10 min before the glucose uptake assay. Cellular glucose uptake was measured by incubating cells in the glucose-free KRP buffer with […] [^3H]2-deoxyglucose (specific activity, 40 Ci/mmol) for 30 min in the absence or presence of compounds. After the cells were washed with ice-cold PBS and lysed by 0.2 N NaOH, the cell lysates were transferred to scintillation counting vials and the radioactivity in the cell lysates was quantified by liquid scintillation counting. Cell growth measurements were performed using an MTT assay in hexads in a 96-well tissue culture plate with 5,000 cells plated in each well. The cells were incubated in presence or absence of the compounds (30 μM) for 48 h. After incubation, cell viabilities were assayed using a 96-well SPECTRAMAX™ absorbance/fluorescence plate reader (Molecular Devices).
as §2

cancer cells = test: Anticancer screens of hydrolysis products; type: cell-based
From the text: (§4) In summary, a library of multiphenolic ester compounds as novel inhibitors of basal glucose transport and anticancer agents with a potential new target, basal glucose transport, were synthesized.

basal glucose uptake = test: Glucose uptake of possible hydrolyzed products (FIG. 2); type: cell-based
From the text: as §4

H1299 cells = test: Standard glucose uptake assay, H1299; type: cell-based, human; conditions: H1299; for glucose uptake inhibition compared with fasentin: all compounds 30 μM, FIG. 22A
Description: as §3
Cancer cells are treated with or without the compounds for 10 min before the glucose uptake assay. Cellular glucose uptake will be measured by incubating cells in glucose-free RPMI 1640 with […] [^3H]2-deoxyglucose (specific activity, 40 Ci/mmol) for 30 min in the absence and presence of compounds. After the cells are washed with ice-cold PBS and lysed, the cell lysates will be transferred to scintillation counting vials and the radioactivity in the cell lysates is quantified by liquid scintillation counting.

basal glucose transport = conditions: known glucose transport inhibitors, positive controls; cited from earlier work
HeLa cells = test: Glucose uptake assay (3H 2-DG), HeLa; type: cell-based, human; conditions: HeLa, FIG. 8
Description: Cells were treated with α-PGG for 20 minutes before ^3H-labeled 2-DG. […] Samples: 1. Mock; 2. […] WZB-25 (30 μM); 5. WZB-26 (30 μM); and 6. WZB-27 (30 μM). Compounds 1a and 2a were initially prepared as potential anti-diabetic analogs of α-PGG (FIG. 1). Given the tight SAR of this class of compounds, it was hypothesized that a more rigid scaffold (i.e., a benzene ring) might enhance the activity. […] Error bars in FIG. 8 represent standard deviations of the measurements. Samples were done in triplicates and the experiment was repeated three times.

[2] = test system: RKO and RKO E6 cell lines; test: Cell killing assay in RKO and RKO E6 cells; type: cell-based, human; conditions: high vs low p53
From the text: A. Cell viability assay in RKO colon cancer cells. RKO cells contain high levels of p53 while RKO E6 cells contain much lower levels of p53. […] RKO cells have higher level of p53 while RKO-E6 is p53 deficient. ***p<0.001, **p<0.01. C.

[3] = test system: PARP protein (Caspase 3 substrate) in H1299 lung cancer cells; test: PARP cleavage assay, H1299; type: cell-based, human
From the text: A. Cell viability assay in RKO colon cancer cells with α-PGG, W25 (WZB-25), W27 (WZB-27), and C7 treatments. RKO cells contain high levels of p53 while RKO E6 cells contain much lower levels of p53. B. Apoptosis assay in H1299 lung cancer cells using cleaved PARP protein (89 kDa) as an indicator for Caspase 3 since PARP is a substrate of activated Caspase 3.
To determine if anti-cancer compounds W25 and W27 kill cancer cells using a p53 dependent or a p53-independent pathway, a cell killing assay was performed in RKO and RKO E6 cell lines. The difference between the two cell lines is that RKO cells contain much higher levels of p53 than RKO E6 cells.
Cells were harvested from plates, re-suspended with 3× sample buffer, and boiled for 5 min. Approximately […] of protein extract was loaded after protein concentration measurement by Pierce bicinchoninic acid (BCA) protein assay (Pierce Biotechnology, Inc. Rockford, Ill.). Samples were run on a 10% Bio-Tris NuPAGE gel (Invitrogen) and transferred to a polyvinylidene difluoride membrane (PVDF, Biorad). The membrane was incubated with antibodies specific to p53, or PARP, or β-actin. Specific protein bands were visualized after the development of film. Antibodies for p53 were purchased from Santa Cruz Biotechnology, Inc. (Santa Cruz, Calif., USA). […]

[4] = test system: three different cancer cell lines; conditions: all compounds 60 μM, FIG. 22B
Description: Known basal glucose compound fasentin and compound inhibitors generated in house were compared side by side in both glucose uptake assay and cell viability (MTT) assay. Glucose uptake or cell viability of mock treated samples was arbitrarily assigned a value of 100%. A. Glucose uptake assay in H1299 cancer cells. Concentration for all compounds was 30 μM. B. Cell viability assays in three different cancer cell lines. Concentration for all compounds was 60 μM.
Fasentin is a published inhibitor of basal glucose transport and known GLUT1 inhibitor.

[5] = HPLC analysis of compound stability in human serum; type: in vitro ADME; conditions: for Compound concentration (%) after incubation with serum: human serum, 37 C
Description: A total of 2.5 ml of compound solution was added to 22.5 ml of human serum and the mixture was incubated at 37 C for various times. The final concentration of the compound in serum was 6.8 mM. After incubation, […] of acetonitrile was added to the mixture, centrifuged to remove proteins before HPLC analysis. The relative concentration of samples at 0 h (in serum but without incubation) was arbitrarily assigned a value of 100% and all other samples were compared to the 0 h samples.

[6] = Table 2, 30 μM, untreated cells 0% inhibition

N.N.[Cl][Pt][Cl] [Cisplatin, cisplatin]
% cell death (NL20 normal lung cells): 58.4 ± 7.0%
% cell death [1]: 69.6 ± 2.9%
% cell death (MCF7 breast cancer cells): 27.0 ± 1.9%
% cell death (H1299 lung cancer cells): 26.4 ± 3.8%

Oc1cccc(F)c1O [Compound 6c]
activity in anticancer screens (cancer cells): none of these compounds showed any activity in anticancer screens
glucose uptake inhibition activity (basal glucose uptake): none of these compounds had any glucose uptake inhibition activity

COc1cc(C(=O)Oc2ccc(Cl)cc2OC(=O)c2cc(OC)c(OC)c(OC)c2)cc(OC)c1OC [Compound 7b]
level of glucose transport inhibition (in words) (H1299 cells; 30 μM): dramatically decreased
Glucose transport inhibition (%) (H1299 cells; [6]): 1.7 ± 1.1%
Cell growth inhibition (%) (H1299 lung cancer cells; Table 2, 30 μM, 48 h): 20.6 ± 2.1%

COc1cc(C(=O)Oc2cccc(F)c2OC(=O)c2cc(OC)c(OC)c(OC)c2)cc(OC)c1OC [Compound 7c]
level of glucose transport inhibition (in words) (H1299 cells; 30 μM, listed as WZB-101): dramatically decreased levels of activity
Glucose transport inhibition (%) (H1299 cells; [6]): 7.9 ± 2.6%
Cell growth inhibition (%) (H1299 lung cancer cells; Table 2, 30 μM, 48 h): 19.6 ± 3.6%

COc1cccc(C(=O)Oc2cccc(OC)c2OC(=O)c2cccc(OC)c2)c1 [Compound 7d]
Glucose transport inhibition (%) (H1299 cells; [6]): 32.1 ± 0.2%
Cell growth inhibition (%) (H1299 lung cancer cells; Table 2, 30 μM, 48 h): 18.3 ± 4.3%

Oc1cccc(O)c1O [Compound 8, pyrogallol]
activity in anticancer screens (cancer cells): none of these compounds showed any activity in anticancer screens
glucose uptake inhibition activity (basal glucose uptake): none of these compounds had any glucose uptake inhibition activity

CC(=O)CC(=O)Nc1ccc(Cl)c(C(F)(F)F)c1 [Fasentin, fasentin]
IC50 (basal glucose transport): ≥ 50 µM

CC(=O)O[C@H]1C(=O)[C@@]2(C)[C@H]([C@H](OC(=O)c3ccccc3)[C@]3(O)C[C@H](OC(=O)[C@H](O)[C@@H](NC(=O)c4ccccc4)c4ccccc4)C(C)=C1C3(C)C)[C@]1(OC(C)=O)CO[C@@H]1C[C@@H]2O [Taxol, taxol]
% cell death (NL20 normal lung cells): 53.8 ± 4.2%
% cell death [1]: 73.7 ± 5.6%
% cell death (MCF7 breast cancer cells): 61.4 ± 7.1%
% cell death (H1299 lung cancer cells): 45.6 ± 4.9%

O=C(O[C@@H]1[C@@H](OC(=O)c2cc(O)c(O)c(O)c2)[C@@H]2OC[C@@H](O2)[C@H]1OC(=O)c1cc(O)c(O)c(O)c1)c1cc(O)c(O)c(O)c1 [WZB-25]
dose dependence of basal glucose transport inhibition (HeLa cells): dose-dependent manner
cell killing / viability RKO vs RKO E6 [2]: killed about the same amounts of RKO cells and RKO E6 cells
PARP cleavage [3]: cleaved into a 89 kDa protein

O=C(Nc1ccc(F)cc1NC(=O)c1cccc(O)c1)c1cccc(O)c1 [WZB-124]
Glucose transport inhibition (%) (H1299 cells; Table 12): 89.7 ± 2.5^b %
Cell growth inhibition (%) (H1299 lung cancer cells; Table 12): 5.7 ± 2.1%

O=C(Nc1ccc(Cl)cc1NC(=O)c1cccc(O)c1)c1cccc(O)c1 [WZB-125]
Glucose transport inhibition (%) (H1299 cells; Table 12): 83.7 ± 0.7%
Cell growth inhibition (%) (H1299 lung cancer cells; Table 12): 5.9 ± 1.4%

Oc1cccc(COc2cccc(OCc3cccc(O)c3)c2OCc2cccc(O)c2)c1 [WZB-131]
cancer cell death compared with fasentin [4]: more cancer cell death than fasentin
glucose uptake inhibition compared with fasentin (H1299 cells): stronger inhibition than fasentin
Glucose transport inhibition (%) (H1299 cells; Table 12): 95.0 ± 1.6%
Cell growth inhibition (%) (H1299 lung cancer cells; Table 12): 12.9 ± 2.6%

COc1cccc(OCc2cccc(O)c2)c1OCc1cccc(O)c1 [WZB-132]
Glucose transport inhibition (%) (H1299 cells; Table 12): 60.0 ± 7.7%
Cell growth inhibition (%) (H1299 lung cancer cells; Table 12): 6.0 ± 2.2%

Oc1cccc(COc2ccc(Cl)cc2OCc2cccc(O)c2)c1 [WZB-133]
cancer cell death compared with fasentin [4]: more cancer cell death than fasentin
glucose uptake inhibition compared with fasentin (H1299 cells): stronger inhibition than fasentin
Glucose transport inhibition (%) (H1299 cells; Table 12): 91.2 ± 0.8%
Cell growth inhibition (%) (H1299 lung cancer cells; Table 12): 14.3 ± 2.7%

Oc1cccc(COc2cccc(F)c2OCc2cccc(O)c2)c1 [WZB-134]
Glucose transport inhibition (%) (H1299 cells; Table 12): 92.5±2.2% and 92.6 ± 2.2%
Cell growth inhibition (%) (H1299 lung cancer cells; Table 12): 10.6±2.0%

Oc1cccc(COc2ccc(Cl)c(OCc3cccc(O)c3)c2)c1 [WZB-141]
Compound concentration (%) after incubation with serum ([5]; 0 h (arbitrarily assigned 100%)): 100%
Compound concentration (%) after incubation with serum ([5]; 4 h): 103.5%
Compound concentration (%) after incubation with serum ([5]; 24 h): 109.7%
Compound concentration (%) after incubation with serum ([5]; 48 h): 87.4%
relative stability in serum ([5]; ether vs ester bond-containing compounds): much more stable in serum than ester bond-containing compounds WZB-115 and WZB-117
Compound concentration (%) after incubation with serum ([5]; l h): 100.3%
Glucose transport inhibition (%) (H1299 cells; Table 12): 96.5±0.5%
Cell growth inhibition (%) (H1299 lung cancer cells; Table 12): 39.5±1.8%

CN(C(=O)c1cccc(O)c1)c1ccc(Cl)cc1N(C)C(=O)c1cccc(O)c1 [WZB-142]
Glucose transport inhibition (%) (H1299 cells; Table 12): 82.7 ± 6.8%
Cell growth inhibition (%) (H1299 lung cancer cells; Table 12): 14.2 ± 9.0%

CN(C(=O)c1cccc(O)c1)c1ccc(F)cc1N(C)C(=O)c1cccc(O)c1 [WZB-143]
Glucose transport inhibition (%) (H1299 cells; Table 12): 85.7 ± 3.6%
Cell growth inhibition (%) (H1299 lung cancer cells; Table 12): 31.1 ± 7.9%

CN(Cc1cccc(O)c1)c1ccc(F)cc1N(C)Cc1cccc(O)c1 [WZB-144]
Glucose transport inhibition (%) (H1299 cells; Table 12): 78.2±1.4%
Cell growth inhibition (%) (H1299 lung cancer cells; Table 12): 14.5±7.6%

CN(Cc1cccc(O)c1)c1ccc(Cl)cc1N(C)Cc1cccc(O)c1 [WZB-145]
Glucose transport inhibition (%) (H1299 cells; Table 12): 73.2 ± 3.8%
Cell growth inhibition (%) (H1299 lung cancer cells; Table 12): 38.2 ± 6.6%

O=c1cc(-c2ccc(O)cc2)oc2cc(O)cc(O)c12 [apigenin]
IC50 (basal glucose transport): ≥ 60 µM
